The numbers were not newly measured in patent US11575141B2 (Robert Bosch GmbH, priority 2020, dated 2023), which cites them from elsewhere.

Where two headings read alike, the source gives them in different places.

As for `O=P(O)(O)P(=O)(O)O` [Example 2, Hypophosphoric acid], the “pKa values (pKa source in footnotes)” value by setting is: (first pKa value listed) 2.2; (fourth pKa value listed) 10.0; (second pKa value listed) 2.8; (third pKa value listed) 7.3.
Turning to `O=P(O)(O)OP(=O)(O)OP(=O)(O)O` [Example 5, Triphosphoric acid], the “pKa values (pKa source in footnotes)” value (first pKa value listed) is 0.89 ^3.
Consider `NP(=O)(O)O` [Example 10, Phosphoramidate], for which the “pKa values (pKa source in footnotes)” value is, setting by setting: (first pKa value listed) ~3.4; (second pKa value listed) ~8.3.
Consider `O=[PH](O)O` [Example 14, Phosphonic acid], for which the “pKa values (pKa source in footnotes)” value is, setting by setting: (first pKa value listed) 1.1-2.3; (second pKa value listed) 5.3-7.2.
